“Also recorded” adds a separate entry of the source. Where a name gives a salt, the structure may show the parent alone.
Key:
man = test: clinical trials; assay type: in vivo, human; conditions: man, tablets or gelatine capsules 5 to 75 mg, 1 to 3 per day
rats [1] = test: action on stereotypies in rats (α-methyltyrosine, haloperidol, reserpine)
mice [2] = test: interaction with barbital; assay type: in vivo, mouse; conditions: gastric route
rats [3] = test: interaction with apomorphine in rats; assay type: in vivo, rat; conditions: i.p., dose not stated
Experimental: CRL 41 224 is administered to groups of 6 rats 0.5 hour before the subcutaneous injection of 0.5 mg/kg of apomorphine.

[4] = water solubility of the product; assay type: physicochemical
Experimental: The 39 g of 1-(4-acetylaminophenyl)-2-chloropropanone thus obtained are dissolved in 200 ml of isopropylamine. The resulting reaction medium is heated under reflux for 6 hours. The excess isopropylamine is evaporated off in vacuo. The evaporation residue, which is in the form of a viscous oil, is taken up with 200 ml of anhydrous ethanol and the hydrochloride is recipitated by means of a stream of HCl gas.

mice [5] = test: motility reduced by habituation to the enclosure; assay type: in vivo, mouse; conditions: i.p., dose not stated
Experimental: After they have stayed in the actimeters for 18 hours, the mice (6 per dose, 12 control animals) receive CRL 41 224. They are immediately returned to their respective enclosures and, half an hour later, their motility is recorded for 30 minutes.

mice [6] = test: interaction with barbital; assay type: in vivo, mouse; conditions: i.p.; dose not stated
Experimental: Half an hour after the administration of CRL 41 224, groups of 10 mice receive an intraperitoneal injection of barbital (220 mg/kg).

mice [7] = test: overall behavior and reactivities in mice; assay type: in vivo, mouse; conditions: mice, i.p.; dose not stated
Experimental: (§1) Groups of three animals are observed before and then 0.25 hour, 0.50 hour, 1 hour, 2 hours, 3 hours and 24 hours after the administration of CRL 41 224.

mice [8] = test: action on the behavioral despair; assay type: in vivo, mouse; conditions: i.p., dose not stated
Description: Half an hour after they have received CRL 41 224, groups of 6 mice are placed in a beaker filled with water to a height of 6 cm. The total period of immobility between the 2nd and 6th minutes following immersion is noted.

male mice [9] = test: influence of catecholamines on hyperactivity in mice; assay type: in vivo, mouse
Experimental: A further series of assays was carried out on mice according to the teaching of S. L. HANDLEY et al. "Influences of catecholamines on dexamphetamine, induced changes in locomotor activity", Psychopharmacology 58, 283-288 (1978), in order to observe a potential influence of dopamine or moradrenaline on the hyperactivity induced by CRL 41 152.
After a habituation period of 1.5 h to the actimeters, male mice (grouped into batches of 10 animals each and a control batch of 20 animals) were administered (under slight anesthesia with ether) per intraventriculocerebral injection (i.e. I.V.C. route) with (i) either 10 μg of noradrenaline, or 10 μg of dopamine or 10 μl (0.5 μl/second) of saline solution, then (ii) 5 minutes later, with CRL 41 152 (in solution in distilled water) per I.P. route in a volume of 20 ml/kg, immediately before replacing the mice in the actimeters vherein their motility was recorded for 1 hour by measuring the number of crossed rays per period of 5 minutes).
Batches receiving CRL 41 152 per I.P. route with noradreanaline or dopamine per I.V.C. route were compared with (i) the control batch receiving the saline solution per I.V.C. route then distilled water per I.P. route, and (ii) batches receiving only noradrenaline, dopamine (per I.V.C. route) or CRL 41 152 (per I.P. route).

rats [10] = test: overall behavior and reactivities in rats; assay type: in vivo, rat; conditions: i.p., dose not stated, hydrochloride
Experimental: as §1

[11] = tested on: White New Zealand gravid female rabbits; test: teratogenic study; assay type: in vivo, rabbit
CNS = test: overall neuropsychopharmacological (CNS) profile; assay type: in vivo, mouse; rat; conditions: i.p., mice and rats; dose not stated; hydrochloride
Experimental: The neuropsychopharmacological study of CRL 41 219 was carried out as indicated above for CRL 41 224.
The neuropsychopharmacological study of CRL 41 220 was carried out in accordance with the procedures given above for CRL 41 224.

mice [12] = test: action on the spontaneous motility (actimeter); assay type: in vivo, mouse; conditions: mice, i.p.; dose not stated
Experimental: 0.5 hour after they have received CRL 41 224, the mice (6 per dose, 12 control animals) are placed in an actimeter, where their motility is recorded for 30 minutes.

[13] = tested on: peripheral α-adrenergic stimulation; test: signs of peripheral adrenergic stimulation; assay type: in vivo, mouse; rat; conditions: i.p.; dose not stated
Experimental: as §1

mice [14] = test: interaction with apomorphine in mice; assay type: in vivo, mouse; conditions: i.p.; dose not stated
Experimental: Groups of 6 mice receive CRL 41 224 0.5 hour before the subcutaneous injection of 1 or 16 mg/kg of apomorphine.

mice [15] = test: interaction with oxotremorine; assay type: in vivo, mouse; conditions: i.p.; dose not stated
Experimental: CRL 41 224 is administered to groups of 6 mice 0.5 hour before the intraperitoneal injection of 0.5 mg/kg of oxotremorine.

rats [16] = test: interaction with amphetamine; assay type: in vivo, rat; conditions: rats, i.p.; dose not stated
Experimental: Amphetamine (2 mg/kg) is injected intraperitoneally into groups of 6 rats 30 minutes after the administration of CRL 41 224.

mice [17] = test: toxicity to grouped mice compared with isolated mice; assay type: in vivo, mouse
mice [18] = test: four plate test, traction and electric shock; assay type: in vivo, mouse; conditions: i.p.; dose not stated
Experimental: The test is performed on groups of 10 mice 30 minutes after the administration of CRL 41 224.

male mice [19] = test: interaction with proadifen: hypothermia induced by apomorphine; assay type: in vivo, mouse
Experimental: (§2) Two series of experiments were carried out. In the first one, male mice (12 per dose, 12 control animals) were administered per I.P. route (i) with proadifen (75 mg/kg) at T-3 h, then (ii) with CRL 41 152 at T-0.5 h. At T=0 the mice were placed in actimeters, where their motility was recoded for 0.5 h. In the second one male mice (12 per dose, 12 control animals) were administered with proadifen and CRL 41 152 as indicated hereinabove, then subcutaneously with apomorphine (16 mg/kg) at T=0 in order to appreciate the potential variation of the hypothermia induced by apomorphine.
(§3) In these two series CRL 41 152, in solution in distilled water, was administered per I.P. route to male mice in a volume of 20 ml/kg.

male mice [20] = test: interaction with proadifen: motility; assay type: in vivo, mouse
Experimental: as §2, §3

mice [21] = test: interaction with reserpine; assay type: in vivo, mouse; conditions: i.p.; dose not stated
Experimental: Four hours after the intraperitoneal injection of 2.5 mg/kg of reserpine, groups of 6 mice receive CRL 41 224.

mice [22] = test: motility reduced by hypoxic aggression; assay type: in vivo, mouse; conditions: i.p., dose not stated
Experimental: Half an hour after they have received CRL 41 224, the mice (10 per dose, 20 control animals) are subjected to acute hypobaric anoxia [pressure reduction of 600 mm Hg (i.e. about 8×10^4 Pa) in 90 seconds; release of vacuum in 45 seconds] and are then placed in an actimeter, where their motility is recorded for 10 minutes.

[23] = proadifen 75 mg/kg i.p. then CRL 41 152

CC(=O)Nc1ccc(C(=O)C(C)NC(C)C)cc1 (centres unmarked) [CRL 41 152, 1-(4-acetylaminophenyl)-2-isopropylaminopropanone hydrochloride]
clinical result: depressions, hypersomnia and GELINEAU's disease (man): excellent drug for treating depressions in man as well as hypersomnia and GELINEAU's disease
effect of haloperidol on induced stereotypies (rats [1]; haloperidol 0.25 mg/kg i.p. 0.5 h before): almost totally prevents the appearance of stereotypies
effect of haloperidol on induced stereotypies (rats [1]; haloperidol 0.5 mg/kg i.p. 0.5 h before): totally inhibits the said stereotypies
suppression of induced stereotype movements by prior injection of alpha-methyltyrosine (rats [1]; i.p.): not suppressed
effect of reserpine on induced stereotypies (rats [1]; reserpine 4 mg/kg i.p. 24 hours before): only a moderate reduction of the stereotypies
inhibition by α-methyltyrosine of the induced stereotypies (rats [1]; α-methyltyrosine 128 mg/kg i.p. 2.5 h before 30 mg/kg i.p. CRL 41 152): 4%
interaction with barbital, kinetic study (mice [2]): clearly showed the interest of CRL 41 152 as awakening agent
stereotypies induced by apomorphine (rats [3]): potentiation of the stereotypies induced by apomorphine
water solubility [4]: very water-soluble
motor activity after habituation to the enclosure (mice [5]): a resumption in the motor activity of mice accustomed to their enclosure
sleep induced by barbital (mice [6]): antagonism of the sleep induced by barbital
excitation in mice (mice [7]): excitation with hyperreactivity in mice
period of immobility or "despair" (mice [8]): a reduction in the immobility
effect of prior dopamine on the motor activity caused (male mice [9]; dopamine 10 μg I.V.C.): did not modify the motor activity caused by CRL 41 152
motor activity (male mice [9]; i.p., 8 mg/kg, one-hour recording): distinct statistically significant increase in motor activity
effect of prior noradrenaline on the motor stimulant effect (male mice [9]; noradrenaline 10 μg I.V.C.): distinct statistically significant decrease in the motor stimulant effect
stereotype movements in rats (rats [10]): stereotype movements in rats; also recorded: induces stereotype movements
teratogenic effect [11]: does not exhibit any harmful teratogenic effect
overall action on the CNS (CNS): stimulant effects; also recorded: antidepressant effects
spontaneous motility / motor activity (mice [12]): an increase in the spontaneous motility in mice
exophthalmos [13]: absent
mydriasis [13]: mydriasis
peripheral adrenergic stimulation, overall [13]: effects which may reflect peripheral adrenergic stimulation
salivation [13]: absent
hypothermia induced by apomorphine (mice [14]): antagonism of the hypothermia induced by apomorphine
hypothermia induced by oxotremorine (mice [15]): antagonism of the hypothermia induced by apomorphine, oxotremorine
trembling caused by oxotremorine (mice [15]): antagonism of the trembling caused by oxotremorine
stereotypies induced by amphetamine (rats [16]): potentiation of the stereotypies induced by apomorphine or amphetamine
toxicity to grouped mice compared with isolated mice (mice [17]): do not increase the toxicity to grouped mice
convulsant effects of electric shock (mice [18]): anticonvulsant effects
hypothermia induced by apomorphine (male mice [19]; i.p., 8 and especially 32 mg/kg, apomorphine 16 mg/kg s.c.): antagonism vis-a-vis the hypothermia induced by apomorphine
righting behaviour and stereotypies induced by apomorphine (male mice [19]; i.p., apomorphine 16 mg/kg s.c.): Neither proadifen, nor CRL 41 152, nor their combination modify the righting behaviour
effect of proadifen on antagonism vis-a-vis the hypothermic effect of apomorphine (male mice [19]; [23]): does block the antagonism
spontaneous motility (male mice [20]; i.p., administered alone): increases the spontaneous motility in mice
effect of proadifen on the induced hypermotility (male mice [20]; [23]): does not cause a distinct reduction of the hypermotility
hypothermia induced by reserpine (mice [21]): antagonism of the hypothermia induced by apomorphine, oxotremorine or reserpine
ptosis induced by reserpine (mice [21]): antagonism of the ptosis induced by reserpine
motor recovery after hypoxic aggression (mice [22]): an improvement in the motor recovery in mice after acute hypoxia
